This note sets out measurements from patent US8497278B2, “Imidazo[1,2-a]pyridine compounds” (priority 2008, dated 2013).

The subject of test [1] is central benzodiazepine receptors. Nature of the test: Central benzodiazepine receptor binding (test of Speth et al.). Particulars: 1000 nM of the compound. Put shortly:
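Values are percent inhibition of central benzodiazepine receptor binding at 1000 nM compound (initial single-point screen at 1.0E-09, 1.0E-07 and 1.0E-05 M). Speth et al. binding test; nonspecific binding defined with excess unlabelled ligand and subtracted from total.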

Test [2] has as its target T1, α2 subtype containing GABA-A receptors (Homo sapiens, UniProt P18507+P47869).
T1 construct: expressed in transfected cells; host or cells: Xenopus laevis oocytes, cRNA injected
Nature of the test: Two-electrode voltage clamp electrophysiology in Xenopus oocytes, potentiation of GABA EC20 response, α2. It is filed as cell-based. Particulars: 100 nM compound. A digest of the protocol: (§1)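 Oocyte TEVC at −80 mV, ND96 buffer pH 7.5; human αβ3γ2L receptors; enhancement of 60 μM GABA (EC20) current by 100 nM test compound.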
Background: Two-electrode voltage clamp holds a large cell at a set potential and records current.

The target of test [3] is T2, α1 subtype containing GABA-A receptors (Homo sapiens, UniProt P14867+P18507).
T2 construct: expressed in transfected cells; host or cells: Xenopus laevis oocytes, cRNA injected
T2 sequence (P14867 28-456): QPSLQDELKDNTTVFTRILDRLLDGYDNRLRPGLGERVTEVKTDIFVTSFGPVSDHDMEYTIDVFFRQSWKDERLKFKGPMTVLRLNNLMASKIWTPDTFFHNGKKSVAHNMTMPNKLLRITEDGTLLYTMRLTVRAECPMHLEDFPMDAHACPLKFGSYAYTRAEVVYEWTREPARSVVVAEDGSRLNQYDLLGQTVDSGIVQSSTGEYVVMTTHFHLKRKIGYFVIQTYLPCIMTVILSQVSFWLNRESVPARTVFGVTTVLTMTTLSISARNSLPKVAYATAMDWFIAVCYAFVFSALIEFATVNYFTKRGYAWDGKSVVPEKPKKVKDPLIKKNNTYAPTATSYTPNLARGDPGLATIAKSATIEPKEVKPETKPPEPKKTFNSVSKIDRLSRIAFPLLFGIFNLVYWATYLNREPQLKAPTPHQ
T2 sequence (P28472 26-473 partner): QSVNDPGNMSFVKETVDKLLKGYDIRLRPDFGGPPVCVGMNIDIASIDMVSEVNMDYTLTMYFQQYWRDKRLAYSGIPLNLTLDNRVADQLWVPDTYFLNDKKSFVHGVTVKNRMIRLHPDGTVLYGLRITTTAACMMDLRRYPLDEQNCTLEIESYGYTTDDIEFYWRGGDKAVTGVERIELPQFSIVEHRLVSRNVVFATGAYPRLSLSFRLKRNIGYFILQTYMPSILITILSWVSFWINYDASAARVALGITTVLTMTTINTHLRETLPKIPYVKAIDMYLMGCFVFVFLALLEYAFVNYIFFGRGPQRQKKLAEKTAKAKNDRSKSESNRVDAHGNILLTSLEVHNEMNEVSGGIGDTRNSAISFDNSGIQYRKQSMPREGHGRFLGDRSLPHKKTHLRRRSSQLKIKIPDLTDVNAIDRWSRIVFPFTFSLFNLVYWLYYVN
T2 sequence (P18507 40-475): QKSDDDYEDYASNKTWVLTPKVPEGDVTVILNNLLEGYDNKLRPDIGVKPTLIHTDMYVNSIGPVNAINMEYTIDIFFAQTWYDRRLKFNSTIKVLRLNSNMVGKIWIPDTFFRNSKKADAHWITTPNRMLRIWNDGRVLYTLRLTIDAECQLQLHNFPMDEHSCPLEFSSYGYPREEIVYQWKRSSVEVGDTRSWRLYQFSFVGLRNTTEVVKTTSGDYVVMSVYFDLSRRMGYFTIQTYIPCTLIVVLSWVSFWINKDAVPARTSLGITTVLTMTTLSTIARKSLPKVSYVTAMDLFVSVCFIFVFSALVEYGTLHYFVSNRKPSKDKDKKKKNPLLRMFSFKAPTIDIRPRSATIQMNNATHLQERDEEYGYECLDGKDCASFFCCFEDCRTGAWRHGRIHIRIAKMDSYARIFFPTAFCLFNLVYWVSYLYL
Description: Two-electrode voltage clamp electrophysiology in Xenopus oocytes, potentiation of GABA EC20 response, α1. Format: cell-based. Particulars: 100 nM compound. A digest of the protocol: as §1

The subject of another test is Swiss Webster (CFW) mice. Description: Four Plate Test (FPT). Particulars: mouse, 30 min before test, 2 min session. It is filed as in vivo. The text has this:
Four Plate Test (FPT) Protocol: The four plate test (FPT) is an animal model of anxiety in which simple ongoing behavior (exploration of novel surroundings) is suppressed by the delivery of mild electric foot-shock contingent to quadrant crossing (Aron, et al., 1971). Clinically effective classes of anxiolytic compounds such as benzodiazepines, selective serotonin reuptake inhibitors, or 5-HT1A receptor agonists produce a marked anti-punishment effect (an increase in punished crossings), which is thought to indicate anxiolytic activity (Aron, et al., 1971; Bourin, et al., 1992; Hascoet, et al., 2000; Ring, et al., 2006). The four plate apparatus (Bioseb, Chaville France) consists of a cage (18×25×16 cm) floored by four identical rectangular metal plates (8×11 cm) separated from one another by a gap of 4 mm. The plates are connected to a shocker unit that can generate electric foot shocks.
Male Swiss Webster (CFW) mice from Charles River (Wilmington, Mass.) were used for the FPT. Mice were received at 3-weeks of age. Upon receipt, mice were assigned unique identification numbers (tail marked) and were group housed with 4 mice per cage in mouse ventilated racks. All animals remained housed in groups of four during the remainder of the study. All mice were acclimated to the colony room for at least one week prior to testing and were subsequently tested at an average age of 4 weeks of age. During the period of acclimation, mice […] were examined on a regular basis, handled, and weighed to assure adequate healtH, D and suitability. Animals were maintained on a 12/12 light/dark cycle. The room temperature was maintained between 20 and 23° C. with a relative humidity maintained between 30% and 70%. Chow and water were provided ad libitum for the duration of the study. In each test, animals were randomly assigned across treatment groups. Alprazolam (0.3 mg/kg) was used as the positive control. Compounds of the present invention, vehicle (45% hydroxypropyl beta-cyclodextrin) and alprazolam were administered orally to all groups (n=10 mice per group) 30 minutes prior to behavioral testing. Following pretreatment, mice were gently placed in the four plate chamber and allowed to explore the enclosure for 18 seconds. After the exploration period, every time the mouse crossed from one plate to another, the experimenter, blind to the dosing conditions, administered a mild electric foot-shock, and referred to as a punished crossing. The intensity and duration of the foot-shock were 0.5 mA for 0.5 seconds. The number of punished crossings was recorded during the 2 min test session. The plates were thoroughly cleaned with 70% ethanol immediately after each mouse. All data were analyzed using an analysis of variance (ANOVA) followed by Fisher's PLSD post hoc test. An effect was considered significance if p<0.05. Statistical outliers above or below 2 standard deviations from the mean in any of the […] were removed from the final analysis.

The target in test [4] is T3, α3 subtype containing GABA-A receptors (Homo sapiens, UniProt P18507+P34903).
T3 construct: expressed in transfected cells; host or cells: Xenopus laevis oocytes, cRNA injected
T3 sequence (P34903 29-492): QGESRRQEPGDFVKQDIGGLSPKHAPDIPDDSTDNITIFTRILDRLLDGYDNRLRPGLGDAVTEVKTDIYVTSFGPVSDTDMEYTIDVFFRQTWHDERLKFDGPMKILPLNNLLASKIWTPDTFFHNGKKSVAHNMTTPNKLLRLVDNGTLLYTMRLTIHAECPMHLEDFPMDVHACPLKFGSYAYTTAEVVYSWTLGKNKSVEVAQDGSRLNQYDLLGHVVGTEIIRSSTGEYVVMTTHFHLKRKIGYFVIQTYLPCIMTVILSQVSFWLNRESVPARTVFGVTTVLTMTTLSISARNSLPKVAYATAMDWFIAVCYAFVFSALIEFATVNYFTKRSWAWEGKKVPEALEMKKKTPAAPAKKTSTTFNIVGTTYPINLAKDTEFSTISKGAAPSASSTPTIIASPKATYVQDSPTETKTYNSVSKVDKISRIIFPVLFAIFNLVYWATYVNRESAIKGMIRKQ
T3 sequence (P28472 26-473 partner): as the sequence (P28472 26-473 partner) above
T3 sequence (P18507 40-475): as the sequence (P18507 40-475) above
Description: Two-electrode voltage clamp electrophysiology in Xenopus oocytes, potentiation of GABA EC20 response, α3. It is filed as cell-based. Particulars: 100 nM compound. As for the experimental part:
Electrophysiology protocol: Oocytes were prepared from adult female Xenopus laevis frogs. cRNA encoding human α1, α2, α3, α5, β3 and γ2L GABAA receptor subunits was injected into the cytoplasm of stage 5 or 6 oocytes using the Robocyte Robot (Multi Channel Systems, Reutlingen, Germany). Two-electrode voltage clamp recordings were made in 96-well plates using the Robocyte Robot. Oocytes were impaled using recording heads with two glass electrodes containing 1.5 M potassium acetate and 0.5 M KCl and held at a membrane potential of −80 mV. Oocytes were continually perfused with a ND96 solution (96 mM NaCl, 2 mM KCl, 0.1 mM CaCl2, and 5 mM HEPES, pH 7.5) using a Gilson 222 XL Liquid Handler and Gilson Minipuls 3 Peristaltic Pump (Gilson Medical Electronics, Middleton, Wis., USA). The protocol consisted of three 20-s applications of GABA that gave a 20% of the maximum response (EC20: 60 μM) to allow for headroom to determine a baseline GABA response. To assess the potentiation, oocytes were first exposed to a single 1 μM chlordiazepoxide (CDP) as a potentiation standard. Oocytes with insufficient expression levels (currents below threshold) or insufficient γ2L subunit incorporation (judged by rapid desensitization upon GABA application, or by insufficient potentiation by CDP) were not included in analysis. Following this control application, a given oocyte was exposed to test compounds at 100 nM concentrations. Only one concentration of one compound was tested per oocyte. […] One skilled in the art will recognize that subtypes contribute to the effects of GABA-A modulators. Such that compounds favoring different subtypes can have different therapeutic effects. The magnitude of modulation, for example, partial modulators can influence the effects in vivo. “++” indicates a greater modulation that “+” so that at any given subtype “++” inducates a greater amount of modulation for that subtype. In some embodiments, modulation favoring alpha 1 relative to alpha2 and/or alpha 3 can have sedative hypnotic effects. In other embodiments, compounds with reduced selectivity of alpha 1 can express anxiolytic effects with less sedation. Compounds with selectivity for alpha 5 can have memory/cognition enhancing effects.

In a further test the test system is rhesus monkeys. Nature of the test: Rhesus monkey conflict test. It is filed as in vivo. Particulars: cumulative dosing. The text has this:
Conflict protocol: The conflict procedure is a well established operant conditioning approach to evaluate anxiolytic-like effects of test compounds. In this procedure, positively-reinforced behavior is suppressed by response-contingent administration of a noxious stimulus (i.e., mild electric shock). Compounds with anxiolytic effects in humans (e.g., benzodiazepines) characteristically increase rates of responding that are suppressed by shock and are referred to as anti-conflict or anxiolytic-like effects. […] In addition to anxiolytic-like effects, conflict procedures also provide an assessment of the ability of the animal to perform operant lever pressing. This is typically assessed by including lever pressing in the absence of the noxious stimulus. Most anxiolytic compounds will decrease rates of responding in the absence of shock at doses higher than those that induce anxiolytic-like effects. The effects contributing to anxiolytic-induced decreases in non-suppressed responding are not well understood, but likely consist of a combination of motor co-ordination deficits and sedative effects.
Adult rhesus monkeys were used in these studies (n=1-4). Weights of the monkeys ranged from 6.2 to 10.5 kg. The animals had been previously trained using the conflict procedure. Animals were maintained at 85-95% of their free-feeding weights by manipulation of food intake. Monkeys were individually housed with water available ad libitum, and maintained on a 12 hour lights-on/12 hour lights-off cycle (lights on at 0600 a.m.). Monkeys received Harlan Teklad diet (15% Primate Diet) as well as supplemental feeding (fruits, vegetables, and commercially available primate treats) daily. They were also given toys and video enrichment when not in an experimental session. Each animal was prepared prior to the study with a chronic indwelling venous catheter for drug delivery. A polyvinyl chloride catheter was implanted in a jugular, femoral or brachial vein under isoflurane anesthesia and aseptic conditions. The proximal end of the catheter terminated above the right atrium, and the distal end was passed subcutaneously to exit in the midscapular region. Experimental sessions began 5-7 days following surgery. Catheters had been implanted approximately 3 months to 1 year prior to the initiation of the study. During experimental sessions, monkeys were seated in primate chairs that were placed in ventilated sound-attenuating chambers. A single response lever was mounted on the wall of the chamber in front of the monkey. Each press of a lever produced an audible click and was recorded as a response via electromechanical equipment, a computer interface, and PC with specialized software. Food pellets could be delivered into a tray located next to the lever. Mild electric shock could be delivered to the bottom of the feet via brass electrodes that were fitted to shoes. Red and green lights mounted above the levers could be illuminated to serve as visual stimuli.
Monkeys were trained under a multiple schedule of food reinforcement adapted from Spealman (1979). A daily session consisted of 4 cycles, each preceded by a 10-min time out period in which all lights in the chamber were off and responding had no programmed consequences. Each cycle consisted of two components, component 1 and 2. Component 1 was signaled by red stimulus lights and consisted of an 18-response schedule (FR18) of food pellet delivery (i.e., the animal receives a food pellet following 18 responses). Component 2, signaled by green stimulus lights, followed immediately and consisted of the FR18 schedule of food delivery combined with a FR20 schedule of foot shock delivery (1.5-3.0 mA, adjusted for each monkey based on individual performance, 0.25 sec duration). Delivery of a food pellet (FR18 schedule) was followed by a 10 sec time out in which responses had no programmed consequences. […]

T1 sequence (P47869 29-451): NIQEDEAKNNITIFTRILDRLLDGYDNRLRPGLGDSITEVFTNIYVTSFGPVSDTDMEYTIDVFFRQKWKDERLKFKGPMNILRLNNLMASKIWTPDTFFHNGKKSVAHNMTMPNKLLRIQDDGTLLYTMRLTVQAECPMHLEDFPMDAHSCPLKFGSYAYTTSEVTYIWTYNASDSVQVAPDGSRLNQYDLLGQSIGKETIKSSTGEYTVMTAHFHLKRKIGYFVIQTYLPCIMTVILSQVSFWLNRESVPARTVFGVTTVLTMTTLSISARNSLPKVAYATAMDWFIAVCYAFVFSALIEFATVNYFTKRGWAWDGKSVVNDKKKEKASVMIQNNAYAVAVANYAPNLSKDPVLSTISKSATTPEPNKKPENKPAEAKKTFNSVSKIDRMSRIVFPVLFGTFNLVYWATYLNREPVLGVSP
T1 sequence (P28472 26-473 partner): as the sequence (P28472 26-473 partner) above
T1 sequence (P18507 40-475): as the sequence (P18507 40-475) above

Take `NC(=O)c1nccn1Cc1c(-c2ccc(Cl)cc2)nc2ccccn12` [Compound 76, 1-((2-(4-chlorophenyl)H-imidazo[1,2-a]pyridin-3-yl)methyl)-1H-imidazole-2-carboxamide]: in test [1], the “% Inhibition at 1000 nM for CBZD” value is recorded as “++ (percentage of inhibition of central BZD site binding is greater than 80% in the presence of 1000 nM of the compound)”. Moreover, in test [2], the “Percentage of potentiation alpha2” value is reported as “+ (percentage of potentiation is greater than or equal to 10% but less than 50% in the presence of 100 nM of the compound)”. For the same compound, in test [3], the “Percentage of potentiation alpha1” value is listed as 0 (percentage of potentiation is between about 10% to about −10%). The “Number of Punished Crossings Mean ± S.E.M.” value in the test with Swiss Webster (CFW) mice (3 mg/kg PO) came to 6.7 ± 0.45; with Swiss Webster (CFW) mice (10 mg/kg PO), 6.9 ± 0.35; in the test with Swiss Webster (CFW) mice (30 mg/kg PO) it was 6.3 ± 0.62.

As to `CN1CC[C@@H](Oc2ccnc(NCc3c(-c4ccc(F)cc4)nc4ccc(Cl)cn34)n2)C1` [Compound 183, (R)—N-((6-chloro-2-(4-fluorophenyl)imidazo[1,2-a]pyridin-3-yl)methyl)-4-(1-methylpyrrolidin-3-yloxy)pyrimidin-2-amine], the “% Inhibition at 1000 nM for CBZD” value in test [1] is recorded as “++ (percentage of inhibition of central BZD site binding is greater than 80% in the presence of 1000 nM of the compound)”. Moreover, the values for the activation at 0.1 µM in test [4] (read-out: Percentage of potentiation alpha3), in test [2] (read-out: Percentage of potentiation alpha2) and in test [3] (read-out: Percentage of potentiation alpha1) were -10 to 10%, at least 50% and at least 50%, respectively.

`Fc1ccc(-c2nc3ccc(F)cn3c2Cn2nccn2)cc1` [Compound 60, 3-((2H-1,2,3-triazol-2-yl)methyl)-6-fluoro-2-(4-fluorophenyl)H-imidazo[1,2-a]pyridine]: the “% Inhibition at 1000 nM for CBZD” value in test [1] was “++ (percentage of inhibition of central BZD site binding is greater than 80% in the presence of 1000 nM of the compound)”. Further, the “Percentage of potentiation alpha2” value in test [2] is given as “+ (percentage of potentiation is greater than or equal to 10% but less than 50% in the presence of 100 nM of the compound)”. Further, the “Percentage of potentiation alpha1” value in test [3] was 0 (percentage of potentiation is between about 10% to about −10%). The “Number of Punished Crossings Mean ± S.E.M.” value is given as 6.3 ± 0.45 with Swiss Webster (CFW) mice (3 mg/kg PO), 6.3 ± 0.70 with Swiss Webster (CFW) mice (10 mg/kg PO) and 6.0 ± 0.30 with Swiss Webster (CFW) mice (30 mg/kg PO).

For `Fc1ccc(-c2nc3ccc(F)cn3c2Cn2ccnn2)cc1` [Compound 61, 3-((1H-1,2,3-triazol-1-yl)methyl)-6-fluoro-2-(4-fluorophenyl)H-imidazo[1,2-a]pyridine], in test [1], the “% Inhibition at 1000 nM for CBZD” value is given as “++ (percentage of inhibition of central BZD site binding is greater than 80% in the presence of 1000 nM of the compound)”. The “Percentage of potentiation alpha3” value in test [4] is “++ (percentage of potentiation is greater than or equal to 50% in the presence of 100 nM of the compound)”. Besides, the “Percentage of potentiation alpha2” value in test [2] is given as “+ (percentage of potentiation is greater than or equal to 10% but less than 50% in the presence of 100 nM of the compound)”. Moreover, in test [3], the “Percentage of potentiation alpha1” value is listed as “+ (percentage of potentiation is greater than or equal to 10% but less than 50% in the presence of 100 nM of the compound)”.

For `Cc1nnc2n1-c1ccc(Cl)cc1C(c1ccccc1)=NC2` [Alprazolam, reference compound], the “Non-Suppressed Response Rates Mean ± S.E.M.” value with rhesus monkeys (0.003 mg/kg IV) was 2.18 ± 0.26 Responses/Second; with rhesus monkeys (0.01 mg/kg IV), 2.62 ± 0.32 Responses/Second; in the test with rhesus monkeys (0.03 mg/kg IV), 2.38 ± 0.36 Responses/Second; in the test with rhesus monkeys (0.1 mg/kg IV), 1.16 ± 0.26 Responses/Second. The “Suppressed Response Rates Mean ± S.E.M.” value in the test on rhesus monkeys (0.003 mg/kg IV) was 0.04 ± 0.02 Responses/Second; in the test on rhesus monkeys (0.01 mg/kg IV) it was 0.76 ± 0.26 Responses/Second; in the test with rhesus monkeys (0.03 mg/kg IV), 2.28 ± 0.55 Responses/Second; with rhesus monkeys (0.1 mg/kg IV), 1.44 ± 0.57 Responses/Second.
